According to patent US4994376A, “Detection of bacteroides gingivalis” (priority 1987, dated 1991):
Like-named read-outs stand apart in the source and are kept apart here. Peptide text beside a SMILES is read from it. * marks the point of attachment. βNA = c1ccc2cc(N*)ccc2c1

Key:
Assay type in all cases: biochemical
[1] = test system: Fusobacterium nucleatum; settings: β-naphthylamine liberated after 60 minutes, 37° C.
Procedure: (§1) The enzyme activity was measured by the chromogenic properties of N-CBz-glycyl-glycyl-L-arginine-β-naphthylamide which upon hydrolysis gives a visible color. The aminopeptidase activities listed in the table reflect the nanomoles of β-naphthylamine liberated after 60 minutes under the conditions described below.
(§2) After mixing, the solution is incubated for 1 hour at 37° C. and then 0.4 ml of a solution of stabilized diazonium salt, Fast Garnet GBC (0.5 mg/ml) in a 1M acetic acid buffer (pH 4.2), containing 10% Tween 20 was added to the mixture. After standing for 15 minutes at room temperature, the color reaction can be read manually by comparison with standard solutions or the absorbancy can be determined using a spectrophotometer at 525 nm. The reaction mixture without enzyme solution is used as a control.
(§3) The enzyme activity and the aminopeptidase activities were determined in the manner described above in regard to Table I.

[2] = test system: Actinomyces israeli; settings: β-naphthylamine liberated after 60 minutes, 37° C.
Procedure: as §1, §2, §3

[3] = test system: S. mutans; settings: strain ATCC 25175; β-naphthylamine liberated after 60 minutes, 37° C.
Procedure: as §1, §2, §3

[4] = test system: Veillonella sp.; settings: strain SE1M2; β-naphthylamine liberated after 60 minutes, 37° C.
Procedure: as §1, §2, §3

[5] = test system: A. viscosus; settings: β-naphthylamine liberated after 60 minutes, 37° C.
Procedure: as §1, §2, §3

[6] = test system: "Anaerobic vibrio"; settings: strain SN2T2; β-naphthylamine liberated after 60 minutes, 37° C.
Procedure: as §1, §2, §3

[7] = test system: V. parvula; settings: strain ATCC 10790; β-naphthylamine liberated after 60 minutes, 37° C.
Procedure: as §1, §2, §3

[8] = test system: Actinobacillus actinomycetemcomitans; settings: β-naphthylamine liberated after 60 minutes, 37° C.
Procedure: as §1, §2, §3

[9] = test system: Campylobacter sputorum; settings: strain Ba1-21; β-naphthylamine liberated after 60 minutes, 37° C.
Procedure: as §1, §2, §3

[10] = test system: Eikenella corrodens; settings: strain BP1-6; β-naphthylamine liberated after 60 minutes, 37° C.
Procedure: as §1, §2, §3

[11] = test system: S. sanguis; settings: β-naphthylamine liberated after 60 minutes, 37° C.
Procedure: as §1, §2, §3

[12] = test system: Streptococcus mitis; settings: β-naphthylamine liberated after 60 minutes, 37° C.
Procedure: as §1, §2, §3

[13] = test system: A. seminis; settings: strain ATCC 15768; β-naphthylamine liberated after 60 minutes, 37° C.
Procedure: as §1, §2, §3

[14] = test system: Capnocytophaga gingivalis; settings: strain ATCC 33624; β-naphthylamine liberated after 60 minutes, 37° C.
Procedure: as §1, §2

[15] = test system: Bacteroides gingivalis; settings: β-naphthylamine liberated after 60 minutes, 37° C.
Procedure: as §1, §2

[16] = test system: B. levii; settings: β-naphthylamine liberated after 60 minutes, 37° C.
Procedure: as §1, §2

[17] = test system: B. asaccharolyticus; settings: β-naphthylamine liberated after 60 minutes, 37° C.
Procedure: as §1, §2

[18] = test system: C. ochracea; settings: strain ATCC 27872; β-naphthylamine liberated after 60 minutes, 37° C.
Procedure: as §1, §2

[19] = test system: B. loescheii; settings: β-naphthylamine liberated after 60 minutes, 37° C.
Procedure: as §1, §2

[20] = test system: B. mel. ss. intermedius; settings: β-naphthylamine liberated after 60 minutes, 37° C.
Procedure: as §1, §2

[21] = test system: S. salivarius; experiment: Aminopeptidase activity on β-naphthylamide substrates; settings: β-naphthylamine liberated after 60 minutes, 37° C.
Procedure: as §1, §2, §3

[22] = test system: A. equuli; experiment: as above; settings: strain ATCC 19392; β-naphthylamine liberated after 60 minutes, 37° C.
Procedure: as §1, §2, §3

[23] = test system: F. periodonticum; experiment: as above; settings: strain EK1-15; β-naphthylamine liberated after 60 minutes, 37° C.
Procedure: as §1, §2, §3

[24] = test system: A. suis; experiment: as above; settings: strain ATCC 15557; β-naphthylamine liberated after 60 minutes, 37° C.
Procedure: as §1, §2, §3

[25] = test system: Haemophilus aphrophilus; experiment: as above; settings: β-naphthylamine liberated after 60 minutes, 37° C.
Procedure: as §1, §2, §3

[26] = test system: Lactobacillus casei; experiment: as above; settings: β-naphthylamine liberated after 60 minutes, 37° C.
Procedure: as §1, §2, §3

[27] = test system: L. fermentum; experiment: as above; settings: strain ATCC 11581; β-naphthylamine liberated after 60 minutes, 37° C.
Procedure: as §1, §2, §3

Structure (SMILES): NC(=O)[C@@H](N)CCC(=O)O [α-Glu, α -glutamine]
- Aminopeptidase activity ([1]; strain 2): 0 nmol
- Aminopeptidase activity ([1]; strain ATCC 25586): 0 nmol
- Aminopeptidase activity ([1]; strain D31A-24): 1 nmol
- Aminopeptidase activity ([2]; strain ATCC 12103): 0 nmol
- Aminopeptidase activity ([2]; strain DK2-3): 0 nmol
- Aminopeptidase activity [3]: 0 nmol
- Aminopeptidase activity [4]: 0 nmol
- Aminopeptidase activity ([5]; strain ATCC 19246): 0 nmol
- Aminopeptidase activity ([5]; strain T14V): 0 nmol
- Aminopeptidase activity [6]: 0 nmol
- Aminopeptidase activity [7]: 0 nmol
- Aminopeptidase activity ([8]; strain 67): 0 nmol
- Aminopeptidase activity ([8]; strain 75): 0 nmol
- Aminopeptidase activity ([8]; strain ATCC 29523): 0 nmol
- Aminopeptidase activity ([8]; strain NCTC 9709): 0 nmol
- Aminopeptidase activity ([8]; strain Y4): 0 nmol
- Aminopeptidase activity [9]: 1 nmol
- Aminopeptidase activity [10]: 0 nmol
- Aminopeptidase activity ([11]; strain ATCC 10556): 0 nmol
- Aminopeptidase activity ([11]; strain ATCC 10557): 0 nmol
- Aminopeptidase activity ([12]; strain ATCC 9815): 0 nmol
- Aminopeptidase activity ([12]; strain ATCC 15909): 0 nmol
- Aminopeptidase activity ([12]; strain ATCC 15911): 0 nmol
- Aminopeptidase activity ([12]; strain ATCC 15912): 0 nmol
- Aminopeptidase activity [13]: 0 nmol
- Aminopeptidase activity [14]: 5 nmol
- Aminopeptidase activity ([15]; strain 9-14K-1): 0 nmol
- Aminopeptidase activity ([15]; strain 11-1-2): 0 nmol
- Aminopeptidase activity ([15]; strain 381): 0 nmol
- Aminopeptidase activity ([15]; strain 1021): 0 nmol
- Aminopeptidase activity ([15]; strain ATCC 33277): 1 nmol
- Aminopeptidase activity ([15]; strain FAYE 19m-1): 0 nmol
- Aminopeptidase activity ([16]; strain 18-1-5): 0 nmol
- Aminopeptidase activity ([16]; strain 18-1-8): 2 nmol
- Aminopeptidase activity ([17]; strain 536B): 0 nmol
- Aminopeptidase activity ([17]; strain ATCC 18569): 0 nmol
- Aminopeptidase activity ([17]; strain ATCC 25260): 0 nmol
- Aminopeptidase activity ([17]; strain ATCC 27067): 0 nmol
- Aminopeptidase activity ([17]; strain NY446): 0 nmol
- Aminopeptidase activity [18]: 5 nmol
- Aminopeptidase activity ([19]; strain ATCC 15930): 0 nmol
- Aminopeptidase activity ([19]; strain VPI4196): 0 nmol
- Aminopeptidase activity ([20]; strain ATCC 25261): 0 nmol
- Aminopeptidase activity ([20]; strain ATCC 33563): 0 nmol
- Aminopeptidase activity ([20]; strain NCTC 9336): 0 nmol
- Aminopeptidase activity ([21]; strain ATCC 9759): 0 nmol
- Aminopeptidase activity ([21]; strain ATCC 25975): 0 nmol
- Aminopeptidase activity [22]: 0 nmol
- Aminopeptidase activity [23]: 0 nmol
- Aminopeptidase activity [24]: 0 nmol
- Aminopeptidase activity ([25]; strain ATCC 13252): 0 nmol
- Aminopeptidase activity ([25]; strain ATCC 19415): 0 nmol
- Aminopeptidase activity ([25]; strain NCTC 5908): 0 nmol
- Aminopeptidase activity ([26]; strain ATCC 7469): 0 nmol
- Aminopeptidase activity ([26]; strain ATCC 11578): 3 nmol
- Aminopeptidase activity ([26]; strain ATCC 11582): 3 nmol
- Aminopeptidase activity [27]: 0 nmol

Structure (SMILES): CC(C)C[C@H](NC(=O)[C@@H]1CCCN1C(=O)CN)C(=O)Nc1ccc2ccccc2c1 [Gly-Pro-Leu] (H-Gly-Pro-Leu-βNA)
- Aminopeptidase activity ([1]; strain 2): 0 nmol
- Aminopeptidase activity ([1]; strain ATCC 25586): 2 nmol
- Aminopeptidase activity ([1]; strain D31A-24): 2 nmol
- Aminopeptidase activity ([2]; strain ATCC 12103): 0 nmol
- Aminopeptidase activity ([2]; strain DK2-3): 0 nmol
- Aminopeptidase activity [3]: 0 nmol
- Aminopeptidase activity [4]: 0 nmol
- Aminopeptidase activity ([5]; strain ATCC 19246): 0 nmol
- Aminopeptidase activity ([5]; strain T14V): 2 nmol
- Aminopeptidase activity [6]: 0 nmol
- Aminopeptidase activity [7]: 0 nmol
- Aminopeptidase activity ([8]; strain 67): 1 nmol
- Aminopeptidase activity ([8]; strain 75): 1 nmol
- Aminopeptidase activity ([8]; strain ATCC 29523): 0 nmol
- Aminopeptidase activity ([8]; strain NCTC 9709): 0 nmol
- Aminopeptidase activity ([8]; strain Y4): 0 nmol
- Aminopeptidase activity [9]: 2 nmol
- Aminopeptidase activity [10]: 0 nmol
- Aminopeptidase activity ([11]; strain ATCC 10556): 11 nmol
- Aminopeptidase activity ([11]; strain ATCC 10557): 6 nmol
- Aminopeptidase activity ([12]; strain ATCC 9815): 27 nmol
- Aminopeptidase activity ([12]; strain ATCC 15909): 7 nmol
- Aminopeptidase activity ([12]; strain ATCC 15912): 11 nmol
- Aminopeptidase activity [13]: 0 nmol
- Aminopeptidase activity [14]: 58 nmol
- Aminopeptidase activity ([15]; strain 9-14K-1): 0 nmol
- Aminopeptidase activity ([15]; strain 11-1-2): 2 nmol
- Aminopeptidase activity ([15]; strain 381): 0 nmol
- Aminopeptidase activity ([15]; strain 1021): 0 nmol
- Aminopeptidase activity ([15]; strain ATCC 33277): 0 nmol
- Aminopeptidase activity ([15]; strain FAYE 19m-1): 0 nmol
- Aminopeptidase activity ([16]; strain 18-1-5): 1 nmol
- Aminopeptidase activity ([16]; strain 18-1-8): 0 nmol
- Aminopeptidase activity ([17]; strain 536B): 3 nmol
- Aminopeptidase activity ([17]; strain ATCC 18569): 0 nmol
- Aminopeptidase activity ([17]; strain ATCC 25260): 3 nmol
- Aminopeptidase activity ([17]; strain ATCC 27067): 4 nmol
- Aminopeptidase activity ([17]; strain NY446): 0 nmol
- Aminopeptidase activity [18]: 41 nmol
- Aminopeptidase activity ([19]; strain ATCC 15930): 1 nmol
- Aminopeptidase activity ([19]; strain VPI4196): 1 nmol
- Aminopeptidase activity ([20]; strain ATCC 25261): 1 nmol
- Aminopeptidase activity ([20]; strain ATCC 33563): 2 nmol
- Aminopeptidase activity ([20]; strain NCTC 9336): 1 nmol
- Aminopeptidase activity ([21]; strain ATCC 9759): 2 nmol
- Aminopeptidase activity ([21]; strain ATCC 25975): 0 nmol
- Aminopeptidase activity [22]: 0 nmol
- Aminopeptidase activity [23]: 1 nmol
- Aminopeptidase activity [24]: 0 nmol
- Aminopeptidase activity ([25]; strain ATCC 13252): 0 nmol
- Aminopeptidase activity ([25]; strain ATCC 19415): 0 nmol
- Aminopeptidase activity ([25]; strain NCTC 5908): 0 nmol
- Aminopeptidase activity ([26]; strain ATCC 7469): 0 nmol
- Aminopeptidase activity ([26]; strain ATCC 11578): 0 nmol
- Aminopeptidase activity ([26]; strain ATCC 11582): 0 nmol
- Aminopeptidase activity [27]: 0 nmol
